Structures can show the parent of a compound that is named as a salt. Where two headings read alike, the source gives them in different places.
How the values were obtained:
epididymal spermatozoa = test: Capacitation analysis, chlorotetracycline (CTC) assay; assay type: cell-based, mouse; conditions: for number of capacitated sperm: FIG. 6, P<0.001; for % capacitated sperm: mean ± SEM
Excerpt: Tissue sections were examined by immunohistochemistry (IHC) using a specific anti-PDE11 antibody. KO mice were generated using standard techniques, and PDE11 ablation confirmed by Southern blotting as well as reverse transcriptase polymerase chain reaction (RT-PCR) and IHC analysis of the testis. Fresh epididymal sperm were collected from adult mice and tested for capacitation (CP) using a chlorotetracycline assay before and after treatment with ATP—an inducer of CP.
For capacitation analyses, fresh epididymal spermatozoa were collected from adult (16 week-old) mice into Tyrodes media, and tested in triplicate using a chlorotetracycline (CTC) assay (Fraser, L. R. & Herod, J. E. Expression of capacitation-dependent changes in chlortetracycline fluorescence patterns in mouse spermatozoa requires a suitable glycolysable substrate. J. Reprod. Fert., 1990; 88(2): 611-21) both ± pre-treatment with ATP—an inducer of capacitation—to determine the functional state of the spermatozoa.
[…] The extent of capacitation was measured using chlorotetracycline (CTC), 750 μM for 15 min at 37° C. The patterns of CTC fluorescence were observed under microscopy (Reference: Fraser L R et al., 1990, J. Reprod. Fert.—see above). Patterns reflected the functional state of spermatozoa, i.e. capacitated, uncapacitated and acrosome loss.

recombinant human PDE7 = biological target: T1, recombinant human PDE7 (Homo sapiens, UniProt Q13946); test: PDE7 inhibition, SPA-based assay; assay type: biochemical; conditions: Sf9 cells, geometric mean of at least 3 determinations
T1 construct: made in house; host or cells: Sf9 insect cells (baculovirus)
T1 sequence (Q13946 whole entry): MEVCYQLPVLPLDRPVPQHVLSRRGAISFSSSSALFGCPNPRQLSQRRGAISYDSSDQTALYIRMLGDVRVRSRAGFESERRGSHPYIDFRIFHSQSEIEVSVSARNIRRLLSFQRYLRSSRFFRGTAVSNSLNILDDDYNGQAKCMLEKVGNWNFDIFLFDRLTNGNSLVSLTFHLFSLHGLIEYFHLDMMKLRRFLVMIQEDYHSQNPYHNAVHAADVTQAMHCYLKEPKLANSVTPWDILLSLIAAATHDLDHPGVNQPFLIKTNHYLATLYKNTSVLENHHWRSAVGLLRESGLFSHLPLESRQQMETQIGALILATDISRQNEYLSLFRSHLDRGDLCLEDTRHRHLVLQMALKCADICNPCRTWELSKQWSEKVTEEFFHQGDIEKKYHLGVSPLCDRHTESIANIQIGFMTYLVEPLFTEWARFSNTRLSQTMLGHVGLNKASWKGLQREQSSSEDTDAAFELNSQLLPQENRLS

recombinant human PDE11A [1] = biological target: T2, recombinant human PDE11A (Homo sapiens, UniProt Q9HCR9); test: PDE11A inhibition, SPA-based cGMP hydrolysis assay; assay type: biochemical
T2 construct: made in house; host or cells: Sf9 insect cells (baculovirus)
T2 sequence (Q9HCR9 445-933): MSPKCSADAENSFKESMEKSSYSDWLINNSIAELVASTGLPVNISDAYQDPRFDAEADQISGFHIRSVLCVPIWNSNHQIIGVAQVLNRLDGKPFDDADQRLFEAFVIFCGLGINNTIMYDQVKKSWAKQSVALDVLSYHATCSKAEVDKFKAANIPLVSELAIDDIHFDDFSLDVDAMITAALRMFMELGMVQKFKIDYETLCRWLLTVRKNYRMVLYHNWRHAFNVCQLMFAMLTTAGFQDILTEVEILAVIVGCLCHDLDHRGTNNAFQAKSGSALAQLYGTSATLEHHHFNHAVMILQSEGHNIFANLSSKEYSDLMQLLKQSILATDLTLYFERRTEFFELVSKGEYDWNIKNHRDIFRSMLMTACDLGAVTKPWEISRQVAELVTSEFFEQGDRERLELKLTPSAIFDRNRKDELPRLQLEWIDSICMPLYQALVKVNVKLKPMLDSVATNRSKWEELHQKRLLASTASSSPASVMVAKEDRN

recombinant human PDE8 = biological target: T3, recombinant human PDE8 (Homo sapiens, UniProt O60658); test: PDE8 inhibition, SPA-based assay; assay type: biochemical; conditions: Sf9 cells, geometric mean of at least 3 determinations
T3 construct: made in house; host or cells: Sf9 insect cells (baculovirus)
T3 sequence (O60658 whole entry): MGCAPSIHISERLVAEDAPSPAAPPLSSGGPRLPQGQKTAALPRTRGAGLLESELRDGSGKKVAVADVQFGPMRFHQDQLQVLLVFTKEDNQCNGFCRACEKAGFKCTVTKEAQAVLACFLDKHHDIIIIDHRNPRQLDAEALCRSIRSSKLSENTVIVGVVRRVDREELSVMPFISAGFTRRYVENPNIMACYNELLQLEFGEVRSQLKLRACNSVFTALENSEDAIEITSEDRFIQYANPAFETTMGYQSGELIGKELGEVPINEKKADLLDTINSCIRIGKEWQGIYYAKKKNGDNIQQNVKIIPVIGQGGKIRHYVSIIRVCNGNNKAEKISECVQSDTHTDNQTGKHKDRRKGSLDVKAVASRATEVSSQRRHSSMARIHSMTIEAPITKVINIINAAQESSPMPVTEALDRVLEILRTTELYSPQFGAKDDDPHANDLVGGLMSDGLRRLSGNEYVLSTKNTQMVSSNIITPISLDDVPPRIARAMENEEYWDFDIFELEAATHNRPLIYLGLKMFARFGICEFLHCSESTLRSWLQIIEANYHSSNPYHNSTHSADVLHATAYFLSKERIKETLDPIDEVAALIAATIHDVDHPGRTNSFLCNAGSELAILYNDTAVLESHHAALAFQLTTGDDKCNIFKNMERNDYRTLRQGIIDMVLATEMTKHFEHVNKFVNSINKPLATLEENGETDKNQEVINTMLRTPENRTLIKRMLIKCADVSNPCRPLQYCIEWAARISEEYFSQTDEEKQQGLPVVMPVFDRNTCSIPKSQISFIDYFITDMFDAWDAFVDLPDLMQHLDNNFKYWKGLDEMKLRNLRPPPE

PDE6 = biological target: T4, PDE6 (Bos taurus, UniProt P11541+P23439); test: PDE6 inhibition, SPA-based cGMP hydrolysis assay; assay type: biochemical; conditions: PDE6 isolated from bovine retina; geometric mean of at least 3 determinations
T4 construct: PDE6 was isolated from bovine retina; from tissue; host or cells: bovine retina
T4 sequence (P11541 2-856 limits assumed): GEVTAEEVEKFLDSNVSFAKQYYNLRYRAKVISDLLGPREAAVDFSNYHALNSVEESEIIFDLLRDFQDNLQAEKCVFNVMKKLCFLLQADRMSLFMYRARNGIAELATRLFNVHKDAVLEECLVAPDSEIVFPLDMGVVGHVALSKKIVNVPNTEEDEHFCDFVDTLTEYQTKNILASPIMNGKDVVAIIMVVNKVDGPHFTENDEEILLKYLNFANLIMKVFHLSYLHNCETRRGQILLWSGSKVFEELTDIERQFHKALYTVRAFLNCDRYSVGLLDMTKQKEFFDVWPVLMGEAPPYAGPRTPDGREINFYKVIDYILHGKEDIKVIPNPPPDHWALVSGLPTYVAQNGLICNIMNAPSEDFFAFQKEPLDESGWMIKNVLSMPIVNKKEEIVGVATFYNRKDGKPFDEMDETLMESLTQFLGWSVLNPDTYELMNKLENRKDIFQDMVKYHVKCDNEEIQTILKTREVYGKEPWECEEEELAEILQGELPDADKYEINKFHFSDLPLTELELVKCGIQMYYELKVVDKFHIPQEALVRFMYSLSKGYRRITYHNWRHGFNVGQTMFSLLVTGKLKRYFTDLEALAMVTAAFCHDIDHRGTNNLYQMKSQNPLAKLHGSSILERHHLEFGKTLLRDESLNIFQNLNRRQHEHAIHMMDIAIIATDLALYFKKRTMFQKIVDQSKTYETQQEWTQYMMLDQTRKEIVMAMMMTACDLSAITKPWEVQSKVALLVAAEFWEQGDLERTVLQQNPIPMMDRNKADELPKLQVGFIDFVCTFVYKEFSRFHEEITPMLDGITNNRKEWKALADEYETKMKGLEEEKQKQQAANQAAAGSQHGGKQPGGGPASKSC
T4 sequence (P23439 2-850 limits assumed): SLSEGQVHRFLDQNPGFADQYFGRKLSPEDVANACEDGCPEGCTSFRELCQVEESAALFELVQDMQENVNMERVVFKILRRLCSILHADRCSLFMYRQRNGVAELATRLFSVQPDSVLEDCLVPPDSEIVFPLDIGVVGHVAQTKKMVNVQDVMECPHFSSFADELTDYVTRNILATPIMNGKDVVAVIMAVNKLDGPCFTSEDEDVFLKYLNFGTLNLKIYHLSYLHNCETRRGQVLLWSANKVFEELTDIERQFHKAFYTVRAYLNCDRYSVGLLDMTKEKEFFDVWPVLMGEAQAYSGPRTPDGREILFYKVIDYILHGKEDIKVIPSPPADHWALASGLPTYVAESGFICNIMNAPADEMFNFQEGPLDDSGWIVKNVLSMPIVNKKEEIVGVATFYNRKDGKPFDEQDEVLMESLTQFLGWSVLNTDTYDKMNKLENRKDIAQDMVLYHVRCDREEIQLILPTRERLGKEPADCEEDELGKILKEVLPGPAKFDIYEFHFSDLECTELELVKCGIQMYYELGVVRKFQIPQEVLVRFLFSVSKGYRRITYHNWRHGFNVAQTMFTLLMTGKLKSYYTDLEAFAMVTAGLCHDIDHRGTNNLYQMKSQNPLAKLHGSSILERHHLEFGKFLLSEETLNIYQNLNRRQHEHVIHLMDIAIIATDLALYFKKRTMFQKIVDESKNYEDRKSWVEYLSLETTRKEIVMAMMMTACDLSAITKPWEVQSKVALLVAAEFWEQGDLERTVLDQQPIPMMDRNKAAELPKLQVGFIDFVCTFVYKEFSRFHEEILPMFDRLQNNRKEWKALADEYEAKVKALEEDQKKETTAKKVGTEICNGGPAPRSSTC

recombinant human PDE10 = recombinant human PDE10 (Homo sapiens, UniProt Q9Y233); test: PDE10 inhibition, SPA-based assay; assay type: biochemical; conditions: Sf9 cells, geometric mean of at least 3 determinations
Chain of recombinant human PDE10 (Q9Y233 290-1055 limits assumed): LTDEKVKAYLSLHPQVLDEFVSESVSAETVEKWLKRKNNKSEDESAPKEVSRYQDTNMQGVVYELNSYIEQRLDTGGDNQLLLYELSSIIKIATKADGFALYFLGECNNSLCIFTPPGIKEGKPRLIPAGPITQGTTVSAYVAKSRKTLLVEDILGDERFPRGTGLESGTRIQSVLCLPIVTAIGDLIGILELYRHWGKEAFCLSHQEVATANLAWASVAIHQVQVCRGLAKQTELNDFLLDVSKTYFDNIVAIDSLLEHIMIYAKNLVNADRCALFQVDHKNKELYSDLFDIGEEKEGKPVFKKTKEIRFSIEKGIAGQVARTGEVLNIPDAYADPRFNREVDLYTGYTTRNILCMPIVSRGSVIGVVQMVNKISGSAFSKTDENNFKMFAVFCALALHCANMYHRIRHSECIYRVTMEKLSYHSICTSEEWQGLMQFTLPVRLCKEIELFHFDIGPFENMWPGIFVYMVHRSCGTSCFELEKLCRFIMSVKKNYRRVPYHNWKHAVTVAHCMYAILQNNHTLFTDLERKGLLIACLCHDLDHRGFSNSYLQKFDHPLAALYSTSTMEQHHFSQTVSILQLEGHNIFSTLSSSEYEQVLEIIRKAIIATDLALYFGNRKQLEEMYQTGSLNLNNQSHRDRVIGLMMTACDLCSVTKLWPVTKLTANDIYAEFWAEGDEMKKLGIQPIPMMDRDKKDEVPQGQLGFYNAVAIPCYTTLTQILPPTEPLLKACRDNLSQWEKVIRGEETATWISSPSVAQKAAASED

recombinant human PDE9 = biological target: T5, recombinant human PDE9 (Homo sapiens, UniProt O76083); test: PDE9 inhibition, SPA-based assay; assay type: biochemical; conditions: Sf9 cells, geometric mean of at least 3 determinations
T5 construct: made in house; host or cells: Sf9 insect cells (baculovirus)
T5 sequence (O76083 whole entry): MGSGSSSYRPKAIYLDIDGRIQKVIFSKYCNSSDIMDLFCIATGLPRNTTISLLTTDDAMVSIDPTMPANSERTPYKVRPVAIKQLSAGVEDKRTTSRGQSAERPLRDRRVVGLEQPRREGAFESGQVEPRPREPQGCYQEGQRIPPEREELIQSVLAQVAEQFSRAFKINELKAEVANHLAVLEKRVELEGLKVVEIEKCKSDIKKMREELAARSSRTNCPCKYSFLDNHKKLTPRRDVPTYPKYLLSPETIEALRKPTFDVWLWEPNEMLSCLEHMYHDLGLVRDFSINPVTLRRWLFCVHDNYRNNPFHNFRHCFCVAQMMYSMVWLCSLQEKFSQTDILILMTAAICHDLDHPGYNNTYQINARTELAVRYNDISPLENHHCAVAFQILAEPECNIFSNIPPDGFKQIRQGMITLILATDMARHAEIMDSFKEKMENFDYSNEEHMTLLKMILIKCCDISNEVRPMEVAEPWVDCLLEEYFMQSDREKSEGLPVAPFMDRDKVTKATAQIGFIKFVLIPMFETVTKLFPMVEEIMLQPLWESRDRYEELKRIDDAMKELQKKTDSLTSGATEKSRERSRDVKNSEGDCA

recombinant human PDE11A [2] = biological target: T2, recombinant human PDE11A; conditions: substrate hydrolysis by recombinant human PDE11A; cited from earlier work

Row | Compound | IC50 (recombinant human PDE7) [µM] | IC50 (PDE6) [µM] | IC50 (recombinant human PDE10) [µM] | IC50 (recombinant human PDE9) [µM] | IC50 (recombinant human PDE8) [µM] | other results
1 | Nc1ncnc2c1ncn2[C@@H]1O[C@H](COP(=O)(O)OP(=O)(O)OP(=O)(O)O)[C@@H](O)[C@H]1O [ATP, adenosine-5′-triphosphate] |  |  |  |  |  | number of capacitated sperm (epididymal spermatozoa; ATP 1.0 mM, spermatozoa from PDE11 KO mice only): significantly increased; number of capacitated sperm (epididymal spermatozoa; ATP 2.5 mM, all murine spermatozoa samples, 1 hr incubation): significantly increased; number of capacitated murine spermatozoa (epididymal spermatozoa; PDE11 knockout and wild type samples, after 1 hr incubation): significantly increased; % capacitated sperm (epididymal spermatozoa; Table 2, PDE11 KO (−/−) mice, pre-treatment +1mM ATP, n = 3 animals): 45.9 ± 7.0%; % capacitated sperm (epididymal spermatozoa; Table 2, PDE11 KO (−/−) mice, pre-treatment +2.5 mM ATP, n = 3 animals): 73.9 ± 5.6%; % capacitated sperm (epididymal spermatozoa; Table 2, Wild-type (+/+) mice, pre-treatment +1mM ATP, n = 3 animals): 41.4 ± 8.2%; % capacitated sperm (epididymal spermatozoa; Table 2, Wild-type (+/+) mice, pre-treatment +2.5 mM ATP, n = 3 animals): 73.5 ± 5.1%; % capacitated sperm (epididymal spermatozoa; Table 3, PDE11 KO (−/−) mice, pre-treatment +1 mM ATP, n = 4): 48.4 ± 4.0%; % capacitated sperm (epididymal spermatozoa; Table 3, PDE11 KO (−/−) mice, pre-treatment +2.5 mM ATP, n = 4): 77.6 ± 3.8%; % capacitated sperm (epididymal spermatozoa; Table 3, Wild-type (+/+) mice, pre-treatment +1 mM ATP, n = 4): 47.1 ± 5.1%; % capacitated sperm (epididymal spermatozoa; Table 3, Wild-type (+/+) mice, pre-treatment +2.5 mM ATP, n = 4): 78.4 ± 3.3%
2 | O=C(O)C1CCN(c2nc(NCc3ccc4c(c3)OCO4)c3cc(Cl)ccc3n2)CC1 [Compound E4021, 1-[4-[(1,3-benzodioxol-5-ylmethyl)amino]-6-chloro-2-quinazolinyl]-4-piperidinecarboxylic acid, monohydrochloride] | > 100 | 0.0047 | > 100 | > 100 | > 100 | IC50 (recombinant human PDE11A [1]): 0.572 µM
3 | CCCc1nn(C)c2c(=O)[nH]c(-c3cc(S(=O)(=O)N4CCN(C)CC4)ccc3OCC)nc12 [Sildenafil, 5-[2-ethoxy-5-(4-methyl-1-piperazinylsulphonyl)phenyl]-1-methyl-3-n-propyl-1,6-dihydro-7H-pyrazolo[4,3-d]pyrimidin-7-one] | 19.7 |  |  |  |  | 
4 | Nc1nc2c(ncn2[C@@H]2O[C@@H]3COP(=O)(O)O[C@H]3[C@H]2O)c(=O)[nH]1 [cGMP, cyclic guanine 3′,5′-monophosphate] |  |  |  |  |  | Km (recombinant human PDE11A [2]): 0.52 µM

Second part, led by results:

Row | IC50 (recombinant human PDE7) [µM] | IC50 (PDE6) [µM] | IC50 (recombinant human PDE10) [µM] | IC50 (recombinant human PDE9) [µM] | Compound | IC50 (recombinant human PDE8) [µM] | other results
5 | > 100 | 1.5 | > 100 | > 100 | CN1CC(=O)N2[C@H](c3ccc4c(c3)OCO4)c3[nH]c4ccccc4c3C[C@@H]2C1=O [IC351, (6R,12aR)-6-(1,3-benzodioxol-5-yl)-2,3,6,7,12,12a-hexahydro-2-methyl-pyrazino[1′,2′: 1,6]pyrido[3,4-b]indole-1,4-dione] | > 100 | 
6 |  | 1 | > 100 | > 100 | Clc1ccc2nc(-n3ccnc3)nc(NCc3ccccc3)c2c1 [UK-235,187, 6-Chloro-2-(1H-imidazol-1-yl)-N-(phenylmethyl)-,4-quinazolinamine, dihydrochloride] |  | IC50 (recombinant human PDE11A [1]; recombinant human, Sf9 cells, 69 nM cGMP, geometric mean of at least 3 determinations, read-out: IC50 PDE11A): 0.0466 µM
